Data reported in ChEMBL document CHEMBL3400064, “Synthesis and biological evaluation of 2-arylbenzimidazoles targeting Leishmania donovani” (Bioorg Med Chem Lett, 2015).

What was measured:
Leishmania donovani [1] = assay: Antileishmanial activity against axenic amastigote Leishmania donovani MHOM/SD/1962/1S-Cl2d assessed as inhibition of parasite growth after 24 hrs at 15 uM by alamarBlue assay; type: functional
Leishmania donovani [2] = assay: Antileishmanial activity against axenic amastigote Leishmania donovani MHOM/SD/1962/1S-Cl2d assessed as inhibition of parasite growth after 24 hrs at 5 uM by alamarBlue assay; type: functional
Leishmania donovani [3] = assay: Antileishmanial activity against axenic amastigote Leishmania donovani MHOM/SD/1962/1S-Cl2d assessed as inhibition of parasite growth after 24 hrs at 50 uM by alamarBlue assay; type: functional
Leishmania donovani [4] = assay: Antileishmanial activity against Leishmania donovani MHOM/SD/1962/1S-Cl2d infected THP1 cells assessed as inhibition of intracellular […] amastigote at 5 uM after 48 hrs at 50 uM by Bright-Glo luciferase assay; type: functional, THP-1
[5] = Cytotoxicity against mouse NIH/3T3 cells assessed as viability at 15 uM after 48 hrs by alamarBlue assay; type: cell-based, NIH3T3; details: read-out: Activity
Leishmania donovani [6] = assay: Antileishmanial activity against Leishmania donovani MHOM/SD/1962/1S-Cl2d infected THP1 cells assessed as inhibition of intracellular […] amastigote after 48 hrs at 50 uM by Bright-Glo luciferase assay; type: functional, organism-based; details: THP-1, 48 h
[7] = Cytotoxicity against mouse NIH/3T3 cells assessed as viability after 48 hrs by alamarBlue assay; type: cell-based; details: NIH3T3, 48 h

SMILES | inhibition at 15 µM (Leishmania donovani [1]) [%] | inhibition at 5 µM (Leishmania donovani [2]) [%] | inhibition at 50 µM (Leishmania donovani [3]) [%] | inhibition (INH) (Leishmania donovani [4]) [%] | viability at 48 h, 15 µM [5] [%] | IC50 (Leishmania donovani [6]) [µM] | IC50 [7] [µM]
O=C(Nc1cccc(-c2nc3ccccc3[nH]2)c1)c1ccccc1 | 43 | 17 | 56 |  |  |  | 
CCCCC(=O)Nc1cccc(-c2nc3ccccc3[nH]2)c1 | 67 | 15 | 82 |  |  |  | 
O=C(Nc1cccc(-c2nc3ccccc3[nH]2)c1)C1CCCC1 | 76 | 22 | 87 |  |  |  | 
O=C(Nc1ccccc1)Nc1cccc(-c2nc3ccccc3[nH]2)c1 | 73 | 13 | 84 |  |  |  | 
O=C(Nc1cccc(-c2nc3ccccc3[nH]2)c1)NC1CCCCC1 | 90 | 24 | 94 |  |  |  | 
O=C(Nc1ccccc1)Nc1ccccc1-c1nc2ccccc2[nH]1 | 16 | 12 | 67 |  |  |  | 
O=C(Nc1ccccc1-c1nc2ccccc2[nH]1)NC1CCCCC1 | 65 | 36 | 88 | 22.2 | -4.4 | 7.6 | 42.2
O=C(Nc1ccccc1)c1cccc(-c2nc3ccccc3[nH]2)c1 | 57 | 8 | 87 |  |  |  | 
O=C(Nc1ccccc1-c1nc2ccccc2[nH]1)c1cccs1 | 26 | 26 | 51 |  |  |  | 
O=C(Nc1cccc(-c2cc3ccccc3[nH]2)c1)c1cccs1 | 33 | 16 | 86 |  |  |  | 
CCn1c(-c2cccc(NC(=O)c3cccs3)c2)nc2ccccc21 | 81 | 24 | 87 |  |  |  | 
CCCn1c(-c2cccc(NC(=O)c3cccs3)c2)nc2ccccc21 | 70 | 25 | 86 |  |  |  | 
CN(C(=O)c1cccs1)c1cccc(-c2nc3ccccc3[nH]2)c1 | 21 | 3 | 40 |  |  |  | 
O=C(Cc1cccs1)Nc1cccc(-c2ncc[nH]2)c1 |  |  | 0 |  |  |  | 
CCc1ccccc1C(=O)Nc1cccc(-c2nc3ccccc3[nH]2)c1 | 52 | 21 | 88 |  |  |  | 
O=C(Nc1cccc(-c2nc3ccccc3[nH]2)c1)c1ccccc1Cl | 55 | 23 | 79 |  |  |  | 
O=C(O)c1cccc(C(=O)Nc2cccc(-c3nc4ccccc4[nH]3)c2)c1 |  |  | 0 |  |  |  | 
COc1ccc(C(=O)Nc2cccc(-c3nc4ccccc4[nH]3)c2)cc1 | 52 | 35 | 64 |  | 54.1 |  | 
O=C(Nc1cccc(-c2nc3ccccc3[nH]2)c1)c1ccc(F)cc1 | 50 | 32 | 69 | 16 | -11.9 | 23.4 | 15.4
O=C(Nc1cccc(-c2nc3ccccc3[nH]2)c1)c1ccc(Cl)cc1 | 41 | 27 | 63 |  |  |  | 
O=C(Nc1cccc(-c2nc3ccccc3[nH]2)c1)c1ccc(-c2ccccc2)cc1 | 80 | 41 | 96 |  | 88.7 |  | 
Cc1cc(C)cc(C(=O)Nc2cccc(-c3nc4ccccc4[nH]3)c2)c1 | 56 | 22 | 88 |  |  |  | 
Cc1ccc(C)c(C(=O)Nc2cccc(-c3nc4ccccc4[nH]3)c2)c1 | 28 | 15 | 78 |  |  |  | 
COc1cc(OC)cc(C(=O)Nc2cccc(-c3nc4ccccc4[nH]3)c2)c1 | 58 | 32 | 83 |  |  |  | 
O=C(Nc1cccc(-c2nc3ccccc3[nH]2)c1)c1cc(Cl)cc(Cl)c1 | 44 | 28 | 97 |  |  |  | 
O=C(Nc1cccc(-c2nc3ccccc3[nH]2)c1)c1cc(Br)cc(Br)c1 | 55 | 29 | 72 |  |  |  | 
O=C(Nc1cccc(-c2nc3ccccc3[nH]2)c1)c1cccs1 | 48 | 39 | 66 | 21.7 | -0.6 | 25.1 | 15
Cc1ccc(C(=O)Nc2cccc(-c3nc4ccccc4[nH]3)c2)cc1 | 71 | 23 | 82 |  |  |  | 
